# Data: US9115142B2, “Heterocycle-substituted piperazino-dihydrothienopyrimidines” (Boehringer Ingelheim International GmbH, priority 2007, dated 2015)
# Target: PDE4B (Homo sapiens, UniProt Q07343)
# Assay: Scintillation Proximity Assay (SPA) of PDE4B enzymatic activity ([H3]-cAMP cleavage)
# Type: biochemical
# Conditions: test substance 1 μM; one-hour incubation with [H3]-cAMP and PDE4B at 30° C.
# Experimental: The Scintillation Proximity Assay (SPA) (GE Healthcare, No. TRKQ7090) was carried out by using the different affinities of cyclic 3″-5″-adenosinemonophosphate (cAMP, low affinity) and linear 5″-adenosinemonophosphate (AMP, high affinity) for yttrium silicate scintillator beads. The cAMP specific phosphodiesterase (PDE) PDE4B cleaves the 3″-phosphoester bond of tritium-labelled [H3]-cAMP to form [H3]-5″-AMP. This [H3]-AMP accumulates on the scintillator beads because of its higher affinity for them and causes scintillation events (flashes of light) which are measured in a Wallac Microbeta Scintillation Counter.
# The experiment starts with a one-hour incubation of [H3]-cAMP with the PDE4B enzyme in assay buffer at 30° C., in each case once with the Example substance to be tested (in a concentration of 1 μM) and once without the Example substance to be tested.
# After this incubation, the reaction is stopped by the addition of the beads. The beads have an opportunity to settle in the next 45 minutes, then the measurement is carried out in the Scintillation Counter. If the substance is capable of inhibiting the enzymatic activity of the PDE4B, less [H3]-AMP is produced during the incubation phase and fewer scintillation events can be measured.
# PDE4B, sequence (Q07343 whole entry, species assumed): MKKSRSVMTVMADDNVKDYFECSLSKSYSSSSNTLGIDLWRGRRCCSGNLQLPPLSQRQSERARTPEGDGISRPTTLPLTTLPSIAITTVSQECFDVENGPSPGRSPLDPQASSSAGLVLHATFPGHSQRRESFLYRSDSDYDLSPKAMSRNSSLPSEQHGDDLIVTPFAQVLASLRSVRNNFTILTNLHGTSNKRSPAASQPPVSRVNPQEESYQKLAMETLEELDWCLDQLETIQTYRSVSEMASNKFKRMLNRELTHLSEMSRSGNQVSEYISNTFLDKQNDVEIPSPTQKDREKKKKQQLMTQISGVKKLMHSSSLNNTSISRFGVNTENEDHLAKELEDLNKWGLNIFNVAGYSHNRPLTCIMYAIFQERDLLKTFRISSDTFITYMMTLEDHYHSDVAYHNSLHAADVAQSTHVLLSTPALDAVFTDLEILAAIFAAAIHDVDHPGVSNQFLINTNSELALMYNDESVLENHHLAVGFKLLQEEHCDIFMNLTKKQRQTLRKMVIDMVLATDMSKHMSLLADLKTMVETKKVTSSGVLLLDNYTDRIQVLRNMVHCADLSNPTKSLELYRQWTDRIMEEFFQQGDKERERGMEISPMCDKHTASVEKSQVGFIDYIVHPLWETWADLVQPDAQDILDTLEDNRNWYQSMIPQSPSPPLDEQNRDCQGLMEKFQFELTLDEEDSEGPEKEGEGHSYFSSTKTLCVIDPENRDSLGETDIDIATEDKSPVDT
row,inhibition at 1 µM,Compound
1,96%,"[O-][S+]1CCc2nc(N3CCN(c4noc5ccccc45)CC3)nc(Nc3cccc(F)c3)c21 (stereo not drawn) [Example 144, [2-(4-benzo[d]isoxazol-3-yl-piperazin-1-yl)-5-oxo-6,7-dihydro-5H-5λ^4-thieno[3,2-d]pyrimidin-4-yl]-(3-fluorophenyl)-amine]"
2,95%,"CC(C)[C@H](CO)Nc1nc(N2CCN(c3nc(-c4ccc(F)cc4)cs3)CC2)nc2c1[S+]([O-])CC2 (stereo partly drawn) [Example 148, (R)-2-(2-{4-[4-(4-fluorophenyl)-thiazol-2-yl]-piperazin-1-yl}-5-oxo-6,7-dihydro-5H-5λ^4-thieno[3,2-d]pyrimidin-4-ylamino)-3-m ethylbutan-1-ol]"
3,95%,"CC(C)[C@H](CO)Nc1nc(N2CCN(c3noc4ccccc34)CC2)nc2c1[S+]([O-])CC2 (stereo partly drawn) [Example 150, (R)-2-[2-(4-benzo[d]isoxazol-3-yl-piperazin-1-yl)-5-oxo-6,7-dihydro-5H-5λ^4-thieno[3,2-d]pyrimidin-4-ylamino]-3-methylbutan-1-ol]"
